What was measured:
sperm nuclei = test: DNA replication of sperm nuclei in Xenopus S-phase egg extract (32P-dCTP incorporation, TCA precipitation); format: biochemical; details: for replication rate of sperm chromatin: 300 μM TSA and 300 μM CTPB
Procedure: (§1) 5 μl samples were taken at different times and DNA replication was monitored by TCA precipitation of ^32PαdCTP incorporated into DNA.
Sperm chromatin was incubated in S-phase extract in the presence of 50 μg/ml ICRF193 at the beginning of the reaction or after 45 min (during the elongation phase). DNA replication was monitored by TCA precipitation of the replicated DNA.
(§2) Demembranated sperm nuclei were prepared and used as described in (Menut et al., 1999), and erythrocyte nuclei were purified from Xenopus blood as described. Nuclei were incubated in S-phase (1,000 nuclei/μl), or M-phase (CSF) extracts that were activated with 1 mM CaCl2. DNA synthesis was measured by ^32P-dCTP incorporation, as previously described (Menut et al., 1999).

erythrocyte nuclei = test: DNA replication of erythrocyte nuclei in Xenopus egg extracts (32P-dCTP incorporation, TCA precipitation); format: biochemical; details: for replication rate of erythrocyte nuclei: permeabilized erythrocyte nuclei in S-phase extract, 300 μM TSA, 600 μM CTPB or 300 μM AA
Procedure: FIG. 1B: Permeabilized erythrocyte nuclei were incubated in S-phase or M-phase extract for 45 minutes before CaCl2 activation to trigger S phase. 5 μl samples were taken at different times. DNA replication was monitored by TCA precipitation of ^32PαdCTP incorporated into DNA and expressed as the percentage replicated DNA compared to the total input DNA. Sperm nuclei incubated in S-phase extract were used as a control.
as §1
FIG. 5A: Erythrocyte chromatin was incubated either in M-phase extract and immediately driven into S phase by Ca^++, or in M-phase extract for 45 min before induction into S phase by Ca^++ in the absence or presence of ICRF. Control sperm chromatin in M-phase extracts induced to enter S phase by calcium is shown. The amount of nuclei was 1000 nuclei/μl egg extract for sperm nuclei, and 500 nuclei/μl egg extract for erythrocyte nuclei to keep the chromatin concentration constant.
as §2

[1] = system: erythrocyte or sperm nuclei; test: Chromosome condensation of nuclei in mitotic egg extract (Hoechst staining); format: biochemical, Xenopus; details: erythrocyte or sperm nuclei in M-phase extract; 50 μg/ml
Procedure: FIG. 5B: Demembranated erythrocyte nuclei or sperm nuclei were incubated in a mitotic egg extract in the presence or absence of 50 μg/ml of the topoisomerase II inhibitor ICRF193. DNA was stained with Hoechst dye for chromosome formation analysis.

ORC2 = ORC2 recruitment to chromatin (chromatin purification, anti ORC2 immunoblot); format: biochemical, Xenopus
Procedure: FIG. 5C: Chromatin was purified and proteins analyzed by SDS gel electrophoresis as described in Material and Methods. Erythrocyte nuclei (500 nuclei/μl egg extract) or sperm nuclei (1000 nuclei/μl egg extract) were incubated in a mitotic egg extract, induced to enter S phase with calcium, in the presence (+) or absence (−) of ICRF 193. Chromatin was purified 30 min after calcium activation and analyzed by immunoblot with a Xenopus anti ORC2 antibody.
50 μl samples were diluted with 5 volumes of extract buffer (XB: 100 mM KCl, 0.1 mM CaCl2, 1 mM MgCl2, 10 mM KOH-Hepes pH 7.7, 50 mM sucrose) and pelleted by centrifugation at 7500 g for 12 min through a 0.7 M sucrose cushion. Nuclear pellets were resuspended in XB, 0.3% Triton X-100 and incubated for 5 min on ice. After a further 5,000 g centrifugation for 5 min, chromatin pellets were recovered and adjusted in Laemmli Buffer.

chromatin loop domains = test: DNA loop size by maximum fluorescent halo technique (MFHT); format: biochemical, Xenopus
Procedure: FIG. 4D: Nuclei were recovered on coverslips and submitted to the maximum fluorescent halo technique (MFHT) for DNA loop size measurements (Material and Methods).
FIG. 7C: Sperm nuclei collected at different times during replication or following M-phase were recovered on coverslips and submitted to MFHT for DNA loop size measurements. Entry into mitosis was induced by incubating post-replicate embryo nuclei in M-phase extract in the presence or absence of ICRF.
Maximum Fluorescent Halo Radius (MFHR) were determined by treating non-fixed nuclei on coverslips. They were first dipped for 1 min in ice cold NP40 buffer (0.5% NP40, 10 mM MgCl2, 0.5 mM CaCl2, 50 mM Hepes pH 7.8) and then sequentially dipped for 30 s in a solution containing 0.2 mM MgCl2, 10 mM Tris (pH 7.4) with 0.5 M, 1 M, 1.5 M, 2 M NaCl. They were then incubated in 100 μg/ml ethidium bromide, 2 M NaCl and exposed for 1 min to short wave UV light before observation by fluorescence (Buongiorno-Nardelli et al., 1982). Halo and matrix diameters were estimated using a micrometrics slide. DNA loop size was calculated taking into account that the loop size is 2 fold the MFHR. The length of linear DNA was calculated using the correspondence of 1 μm to 2.3 kbp.

[2] = sperm nuclei in S-phase extract
[3] = inhibitor present during mitotic remodeling in M-phase extract, chromatin purified 30 min after calcium activation

## CC(/C=C/C(=O)NO)=C\[C@@H](C)C(=O)c1ccc(N(C)C)cc1 [TSA, trichostatin]
Sperm nuclei; [2]
  replication rate of sperm chromatin: no significant effect
Erythrocyte nuclei
  replication rate of erythrocyte nuclei: failed to significantly affect

## CCCCCCCCCCCCCCCc1cccc(OCC)c1C(=O)Nc1ccc(Cl)c(C(F)(F)F)c1 [CTPB]
Sperm nuclei; S-phase extract, prior incubation of 600 μM CTPB, 300 μM AA
  reversal of AA inhibition of sperm nuclei replication: reversed
Sperm nuclei; [2]
  replication rate of sperm chromatin: no significant effect
Erythrocyte nuclei
  replication rate of erythrocyte nuclei: failed to significantly affect

## CCCCCCCCCCCCCCCc1cccc(O)c1C(=O)O [AA, anacardic acid]
Sperm nuclei; sperm nuclei in S-phase extract, 300 μM AA
  replication of sperm nuclei: strongly inhibited
Erythrocyte nuclei; 45 min in M-phase extract, then S-phase extract containing 300 μM AA
  sensitivity of replication of erythrocyte nuclei remodeled in mitosis: as sensitive as sperm nuclei
Erythrocyte nuclei
  replication rate of erythrocyte nuclei: did not further inhibit

## ICRF 193
[1]
  chromosome condensation: prevented chromosome condensation
ORC2; inhibition of loop size remodeling, post-replicative embryonic nuclei and erythrocyte nuclei
  ORC recruitment: decreases
ORC2; [3]
  recruitment of ORC2 onto erythrocyte chromatin for the subsequent S-phase: dramatically reduced
  recruitment of ORC2 onto sperm chromatin for the subsequent S-phase: not
Sperm nuclei; S-phase extract, 50 μg/ml at the beginning of the reaction or after 45 min
  DNA replication of sperm chromatin: does not interfere with DNA replication
Chromatin loop domains; post-replicative embryonic nuclei in M-phase extract
  mitotic remodeling (loop size reduction) of post-replicative nuclei: blocked
Chromatin loop domains; sperm nuclei during replication in S phase, data not shown
  S-phase dependent increase in loop size: prevented
Erythrocyte nuclei; 45 min in M-Phase extract containing ICRF 193 before S phase induction
  rate of replication of erythrocyte nuclei: very low rate of replication

— US8993330B2, “Composition for a mitotic remodeling of chromosomes” (Centre National de la Recherche Scientifique, priority 2005, dated 2015)
